“And” between values parts separate entries of the source, which are not always exact repeats. Equal values may be shown once.
Key:
[1] = tested on: striatal monoamine oxidase; experiment: Inhibition of striatal monoamine oxidase in mice; type: in vivo
Description: (§1) The inhibitor of monoamine oxidase inhibitor is administered in an effective amount, which is that amount necessary to alleviate, reduce, attenuate, or eliminate the symptoms associated with the addictive disorder, disorder or condition to be treated or to slow disease progression. The monoamine oxidase inhibitor can also be administered prophylactically, in order to prevent symptoms associated with the addicitve disorder or disease, or to delay onset of symptoms associated withdrawal or abstinence. If more than one inhibitor of monoamine oxidase inhibitor is used, the effective amount is that amount of the combination of inhibitor of monoamine oxidase inhibitors that is necessary to alleviate, reduce, eliminate, prevent, or delay onset of the symptoms associated with withdrawal or abstinence. The effective amount will be determined on an individual basis, and will be based in part, on consideration of the particular monoamine oxidase inhibitor, the individual's size and gender, the severity of the symptoms to be treated, the result sought, and the disease, disorder or condition to be treated or prevented. […] The effective amount can be determined by one of ordinary skill in the art, employing such factors and using no more than routine experimentation.

[2] = tested on: intestinal monoamine oxidase; experiment: Intestinal monoamine oxidase activity maintained in mice; type: in vivo; details: 0.6 mg/kg
Description: as §1

[3] = tested on: subjects addicted to chronic cigarette smoking; experiment: Experiment One: prospective open trial, self-reported cigarette consumption after quit day
Description: An experimental clinical trial was performed to assess the effect of selegiline alone and in combination with co-administration of nicotine.
In this prospective open trial subjects addicted to chronic cigarette smoking were administered either oral selegiline tablets (Jumex, Janssen, Belgium) 5 mg. b.i.d. or administered, for subjects 8 and 9, combined co-administration of both oral selegiline and nicotine replacement therapy via transdermal patch. Subjects were then monitored for their level of tobacco product consumption during the course of the next 8 weeks. The study protocol relied on the subjective report of the patient for measurement of the therapy outcome, i.e. reporting of level of cigarette consumption was elicited from the participating subjects at weekly intervals intervals throughout the course of the study, unless the patient was using nictotine replacement therapy. Initial, trial entry levels of craving were determined by administration of the Fagerström Tolerance Score exam, while initial level of mood was monitored by administering the Beck Depression Inventory.
Following one week on the medication, the subjects were instructed to quit smoking on “quit day”, as predetermined at the initiation of the study.

smoking cessation = details: cited from earlier work

C#CCN(C)CCCOc1ccc(Cl)cc1Cl [clorgyline]
preferred effective amount to inhibit 90% of striatal monoamine oxidase while maintaining 50% of intestinal activity [1]: 0.6 mg/kg
inhibition of striatal monoamine oxidase ([1]; 0.6 mg/kg): 90%
intestinal monoamine oxidase activity maintained [2]: 50%

CN1CCC[C@H]1c1cccnc1 [nicotine]
cigarettes consumed per week ([3]; week 1 from quit day, oral selegiline 5 mg b.i.d. and/or nicotine transdermal patch): 0 Cig/wk
cigarettes consumed per week ([3]; week 2 from quit day): 0 Cig/wk
cigarettes consumed per week ([3]; week 3 from quit day): 0 Cig/wk
cigarettes consumed per week ([3]; week 4 from quit day): 0 Cig/wk
cigarettes consumed per week ([3]; week 5 from quit day): 0 Cig/wk
cigarettes consumed per week ([3]; week 6 from quit day): 21 Cig/wk
cigarettes consumed per week ([3]; week 7 from quit day): 35 Cig/wk
cigarettes consumed per week ([3]; week 8 from quit day): 60 Cig/wk
success rate, nicotine patch alone (smoking cessation; N. Eng J Med 1999, 340:685-91): 9.8%
success rate for smoking cessation, nicotine transdermal patch as sole therapy (smoking cessation; current best accepted / known efficacy): about 20%

C#CCN(C)[C@H](C)Cc1ccccc1 [selegiline, (R)-(−)-N,2-dimethyl-N-2-propynylphenethylamine]
efficacy: subjects treated successfully (abstaining or significantly reducing cigarette smoking) ([3]; during treatment, Table 2): about 30%
outcome in words: effect on cigarette smoking ([3]; open trial, 8 weeks): effective treatment for substance addiction
cigarettes consumed per week ([3]; week 1 from quit day, oral selegiline 5 mg b.i.d. and/or nicotine transdermal patch, listed as S): 0 Cig/wk (3×) and 21 Cig/wk and 140 Cig/wk and 210 Cig/wk and 35 Cig/wk
cigarettes consumed per week ([3]; week 2 from quit day, listed as S): 0 Cig/wk (3×) and 21 Cig/wk and 70 Cig/wk
cigarettes consumed per week ([3]; week 3 from quit day, listed as S): 0 Cig/wk (2×) and 25 Cig/wk and 3 Cig/wk
cigarettes consumed per week ([3]; week 4 from quit day, listed as S): 0 Cig/wk (3×) and 25 Cig/wk
cigarettes consumed per week ([3]; week 5 from quit day, listed as S): 0 Cig/wk (2×) and 25 Cig/wk
cigarettes consumed per week ([3]; week 6 from quit day): 0 Cig/wk
cigarettes consumed per week ([3]; week 7 from quit day, listed as S): 0 Cig/wk (2×) and 21 Cig/wk
cigarettes consumed per week ([3]; week 8 from quit day, listed as S): 0 Cig/wk and 21 Cig/wk
cigarettes consumed per week ([3]; week 9 from quit day): 21 Cig/wk

Source: patent US20020019421A1, “Compositions and therapy for substance addiction” (priority 2000, published 2002)
